The structures appear in SMILES notation.

This assay deals with T1, Prostaglandin G/H synthase 2 (Mus musculus, UniProt Q05769).
T1 sequence (Q05769 whole entry): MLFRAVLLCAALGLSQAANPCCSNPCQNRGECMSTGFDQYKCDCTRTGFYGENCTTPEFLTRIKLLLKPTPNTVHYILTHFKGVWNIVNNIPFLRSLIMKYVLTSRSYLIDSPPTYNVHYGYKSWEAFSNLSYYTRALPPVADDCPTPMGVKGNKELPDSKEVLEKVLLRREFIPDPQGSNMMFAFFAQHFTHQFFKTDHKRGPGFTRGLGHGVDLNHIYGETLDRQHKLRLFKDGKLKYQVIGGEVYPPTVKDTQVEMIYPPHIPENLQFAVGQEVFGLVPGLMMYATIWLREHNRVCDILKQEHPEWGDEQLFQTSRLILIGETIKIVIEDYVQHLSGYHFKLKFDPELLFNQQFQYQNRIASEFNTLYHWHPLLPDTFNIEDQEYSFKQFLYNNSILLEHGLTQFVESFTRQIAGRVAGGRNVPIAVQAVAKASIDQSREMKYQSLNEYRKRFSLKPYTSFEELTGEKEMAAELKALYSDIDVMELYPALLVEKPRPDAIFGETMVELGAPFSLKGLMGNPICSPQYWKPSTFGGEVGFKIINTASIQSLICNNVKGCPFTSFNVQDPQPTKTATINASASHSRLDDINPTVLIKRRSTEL
The assay is described as follows: Inhibition of LPS-induced COX2 activity in C57BL/6J mouse peritoneal macrophages by RIA.

Usually IC50 stands for the concentration at which inhibition is half-maximal. Low values mean inhibition by little substance, high ones a need for much substance. Turning to `COc1cc(/C=C/C(=O)O[C@H]2[C@H](O[C@@H]3[C@@H](O)[C@H](O[C@@H]4CO[C@@H](O[C@@H]5[C@@H](O)[C@H](C)O[C@@H](O[C@H]6[C@H](O[C@H]7CC[C@]8(C)[C@H]9CC=C%10[C@@H]%11CC(C)(C)CC[C@]%11(C(=O)O[C@@H]%11O[C@H](CO[C@@H]%12O[C@H](CO)[C@@H](O[C@@H]%13O[C@@H](C)[C@H](O)[C@@H](O)[C@H]%13O)[C@H](O)[C@H]%12O)[C@@H](O)[C@H](O)[C@H]%11O)CC[C@@]%10(C)[C@]9(C)CC[C@H]8C7(C)C)OC[C@H](O)[C@@H]6O)[C@@H]5O)[C@H](O)[C@@H]4O)O[C@H](CO)[C@H]3O)O[C@H](CO[C@@H]3O[C@@H](C)[C@H](O)[C@@H](O)[C@H]3O)[C@@H](O)[C@@H]2O)ccc1O` [CLEMATOMANDSHURICA SAPONIN B], the IC50 is 2580 nM.
Under `COc1ccc(/C=C/C(=O)O[C@@H]2[C@@H](O)[C@H](O[C@@H]3[C@@H](O)[C@H](O[C@@H]4CO[C@@H](O[C@@H]5[C@@H](O)[C@H](C)O[C@@H](O[C@H]6[C@H](O[C@H]7CC[C@]8(C)[C@H]9CC=C%10[C@@H]%11CC(C)(C)CC[C@]%11(C(=O)O[C@@H]%11O[C@H](CO[C@@H]%12O[C@H](CO)[C@@H](O[C@@H]%13O[C@@H](C)[C@H](O)[C@@H](O)[C@H]%13O)[C@H](O)[C@H]%12O)[C@@H](O)[C@H](O)[C@H]%11O)CC[C@@]%10(C)[C@]9(C)CC[C@H]8C7(C)C)OC[C@H](O)[C@@H]6O)[C@@H]5O)[C@H](O)[C@@H]4O)O[C@H](CO)[C@H]3O)O[C@H](CO[C@@H]3O[C@@H](C)[C@H](O)[C@@H](O)[C@H]3O)[C@H]2O)cc1O` [CLEMATOMANDSHURICA SAPONIN A] stands 2660 nM.
